In PubChem BioAssay AID248 (DTP/NCI, 2004) one finds T/C data, which are given here for 17 compounds.

This experiment relates to L1210 leukemia ip in BDF1 mice, survival T/C. Nature of the experiment: NCI In Vivo Anticancer Drug Screen. Data for tumor model L1210 Leukemia (intraperitoneal) in B6D2F1 (BDF1) mice. The note with it: endpoint: mean survival time, higher = longer survival. The method, boiled down: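 Value reflects the ratio of survival in compound-treated mice to survival in vehicle-treated controls, with both groups carrying the same transplanted tumor.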

[1] abbreviates: dose: 100.0 mg/kg/injection, schedule: Q01DX001 (ip), vehicle: Klucel (hydroxypropylcellulose) (HPC).
[2] abbreviates: dose: 200.0 mg/kg/injection, schedule: Q01DX001 (ip), vehicle: Klucel (hydroxypropylcellulose) (HPC).
Setting [3] is: dose: 400.0 mg/kg/injection, schedule: Q01DX001 (ip), vehicle: Klucel (hydroxypropylcellulose) (HPC).
[4] abbreviates: dose: 200.0 mg/kg/injection, schedule: Q01DX001 (ip), vehicle: carboxymethylcellulose (CMC).
Setting [5] is: dose: 400.0 mg/kg/injection, schedule: Q01DX001 (ip), vehicle: carboxymethylcellulose (CMC).
[6] abbreviates: dose: 50.0 mg/kg/injection, schedule: Q01DX009 (ip), vehicle: Klucel (hydroxypropylcellulose) (HPC).
[7] abbreviates: dose: 100.0 mg/kg/injection, schedule: Q04DX003 (ip), vehicle: saline with Tween-80.
Where [8] appears, read: dose: 200.0 mg/kg/injection, schedule: Q04DX003 (ip), vehicle: saline with Tween-80.
Where [9] appears, read: dose: 400.0 mg/kg/injection, schedule: Q04DX003 (ip), vehicle: saline with Tween-80.
The mark [10] stands for this setting: dose: 100.0 mg/kg/injection, schedule: Q04DX003 (ip), vehicle: saline.
Setting [11] is: dose: 200.0 mg/kg/injection, schedule: Q04DX003 (ip), vehicle: saline.
Where [12] appears, read: dose: 400.0 mg/kg/injection, schedule: Q04DX003 (ip), vehicle: saline.
Setting [13] is: dose: 50.0 mg/kg/injection, schedule: Q01DX009 (ip), vehicle: saline.
Where [14] appears, read: dose: 100.0 mg/kg/injection, schedule: Q01DX001 (ip), vehicle: saline.
The mark [15] stands for this setting: dose: 100.0 mg/kg/injection, schedule: Q01DX009 (ip), vehicle: saline.
Setting [16] is: dose: 200.0 mg/kg/injection, schedule: Q01DX001 (ip), vehicle: saline.
Setting [17] is: dose: 200.0 mg/kg/injection, schedule: Q01DX009 (ip), vehicle: saline.
[18] abbreviates: dose: 100.0 mg/kg/injection, schedule: Q01DX009 (ip), vehicle: Klucel (hydroxypropylcellulose) (HPC).
Where [19] appears, read: dose: 400.0 mg/kg/injection, schedule: Q01DX009 (ip), vehicle: Klucel (hydroxypropylcellulose) (HPC).
The mark [20] stands for this setting: dose: 200.0 mg/kg/injection, schedule: Q01DX009 (ip), vehicle: Klucel (hydroxypropylcellulose) (HPC).

SMILES strings stand for the structures. Where “and” joins values, the source holds several entries; their conditions need not be identical. Equal values may be shown once. Toxic doses and inconclusive results are not listed.

As to `COCCOC1=C(N2CC2)C(=O)C(OCCOC)=C(N2CC2)C1=O`, the T/C runs as follows: (dose: 0.09 mg/kg/injection, schedule: Q01DX009 (ip), vehicle: saline) 96 % of control; (dose: 0.17 mg/kg/injection, schedule: Q01DX009 (ip), vehicle: saline) 106 % of control; (dose: 0.33 mg/kg/injection, schedule: Q01DX009 (ip), vehicle: saline) 153 % of control; (dose: 0.66 mg/kg/injection, schedule: Q01DX009 (ip), vehicle: saline) 183 % of control; (dose: 1.0 mg/kg/injection, schedule: Q01DX Z (ip), vehicle: saline) 117 % of control; (dose: 1.25 mg/kg/injection, schedule: Q01DX001 (ip), vehicle: saline) 112 % of control. Moreover, the T/C by setting is: (dose: 1.32 mg/kg/injection, schedule: Q01DX009 (ip), vehicle: saline) 150 % of control; (dose: 2.0 mg/kg/injection, schedule: Q01DX Z (ip), vehicle: saline) 150 % of control; (dose: 2.27 mg/kg/injection, schedule: Q01DX009 (ip), vehicle: saline) 153 % of control; (dose: 3.0 mg/kg/injection, schedule: Q01DX001 (ip), vehicle: saline) 110 % of control; (dose: 3.78 mg/kg/injection, schedule: Q01DX009 (ip), vehicle: saline) 195 % of control; (dose: 4.0 mg/kg/injection, schedule: Q01DX Z (ip), vehicle: saline) 150 % of control. Further, the T/C is 106 % of control (dose: 5.55 mg/kg/injection, schedule: Q01DX001 (ip), vehicle: saline); 119 % of control (dose: 6.0 mg/kg/injection, schedule: Q01DX001 (ip), vehicle: saline); 185 % of control (dose: 6.3 mg/kg/injection, schedule: Q01DX009 (ip), vehicle: saline); 91 % of control (dose: 8.0 mg/kg/injection, schedule: Q01DX Z (ip), vehicle: saline); 150 % of control and 176 % of control (dose: 10.0 mg/kg/injection, schedule: Q01DX001 (ip), vehicle: saline).
Regarding `CC(C)(C)OC(=O)COc1ccc(NC(=O)COc2ccc(Cl)c(Cl)c2)cc1`, the T/C reads like this: under setting [1], 101 % of control; under setting [2], 101 % of control; under setting [3], 101 % of control.
Turning to `Nc1c(Br)cc2c(c1Br)C(=O)c1cc(Br)ccc1-2`, the T/C by setting is: (dose: 100.0 mg/kg/injection, schedule: Q01DX001 (ip), vehicle: carboxymethylcellulose (CMC)) 92 % of control; under setting [4], 94 % of control; under setting [5], 97 % of control.
Consider `CCOC(=O)c1cnc2c(ccc3ncccc32)c1NCCCN(CC)CC`, for which the T/C under setting [6] was 112 % of control.
Turning to `COC(=O)c1ccc(OCCOc2ccc(C(C)(C)CC(C)(C)C)cc2)c([N+](=O)[O-])c1`, the T/C was 91 % of control under setting [7], 93 % of control under setting [8] and 91 % of control under setting [9].
With `C/C=C(/C)N(C(C)=O)N(C(C)=O)c1ccc([N+](=O)[O-])cc1[N+](=O)[O-]`, the T/C by setting is: (dose: 100.0 mg/kg/injection, schedule: Q01DX009 (ip), vehicle: other) 103 % of control; under setting [10], 104 % of control; (dose: 200.0 mg/kg/injection, schedule: Q01DX009 (ip), vehicle: other) 101 % of control; under setting [11], 105 % of control; (dose: 400.0 mg/kg/injection, schedule: Q01DX009 (ip), vehicle: other) 97 % of control; under setting [12], 107 % of control.
In the case of `CC(C)=CCNc1ncnc2c1ncn2C1OC(CO)C(O)C1O` (stereo not given), the T/C is, setting by setting: (dose: 50.0 mg/kg/injection, schedule: Q01DX001 (ip), vehicle: saline) 98 % of control; under setting [13], 118 % of control; (dose: 50.0 mg/kg/injection, schedule: Q01DX015 (ip), vehicle: saline) 108 % of control; under setting [14], 93 % of control; under setting [15], 110 % of control; (dose: 100.0 mg/kg/injection, schedule: Q04DX003 (ip), vehicle: Klucel (hydroxypropylcellulose) (HPC)) 93 % of control. Also, the T/C reads like this: under setting [7], 96 % of control; (dose: 150.0 mg/kg/injection, schedule: Q01DX015 (ip), vehicle: saline) 113 % of control; under setting [16], 96 % of control; (dose: 200.0 mg/kg/injection, schedule: Q04DX003 (ip), vehicle: Klucel (hydroxypropylcellulose) (HPC)) 104 % of control; under setting [8], 102 % of control.
Consider `CC(=O)OC1c2ccccc2-c2ccc([N+](=O)[O-])cc21` (stereo not given), for which the T/C was 93 % of control and 100 % of control under setting [7]; 100 % of control and 102 % of control under setting [8]; 96 % of control and 98 % of control under setting [9].
Consider `Nc1ccccc1N/N=C/c1ccccc1`, for which the T/C runs as follows: under setting [14], 101 % of control; under setting [16], 101 % of control; (dose: 400.0 mg/kg/injection, schedule: Q01DX001 (ip), vehicle: saline) 94 % of control.
Regarding `COc1ccccc1C(=O)N/N=C\c1ccc(Cl)cc1Cl`, the T/C runs as follows: under setting [15], 111 % of control; under setting [10], 122 % of control; under setting [17], 97 % of control; under setting [11], 103 % of control; (dose: 400.0 mg/kg/injection, schedule: Q01DX009 (ip), vehicle: saline) 94 % of control; under setting [12], 100 % of control.
`O=C(COc1ccc(Cl)cc1Cl)NCCSCc1ccccc1`: the T/C was 91 % of control under setting [18] and 89 % of control under setting [19].
On to `O=[N+]([O-])c1ccccc1/C=N/N1CCN(/N=C/c2ccccc2[N+](=O)[O-])CC1`, for which the T/C by setting is: under setting [4], 89 % of control; under setting [5], 89 % of control.
With `C[N+](C)(C)CCC[N+]1(C)Cc2ccccc2C1`, the T/C was 91 % of control (dose: 55.0 mg/kg/injection, schedule: Q01DX Z (ip), vehicle: saline); 97 % of control (dose: 83.0 mg/kg/injection, schedule: Q01DX Z (ip), vehicle: saline); 96 % of control (dose: 125.0 mg/kg/injection, schedule: Q01DX Z (ip), vehicle: saline).
As for `O=C1CCCCC1CCCBr` (stereo not given), the T/C reads like this: (dose: 100.0 mg/kg/injection, schedule: Q01DX001 (ip), vehicle: saline with Tween-80) 102 % of control; (dose: 200.0 mg/kg/injection, schedule: Q01DX001 (ip), vehicle: saline with Tween-80) 98 % of control; (dose: 400.0 mg/kg/injection, schedule: Q01DX001 (ip), vehicle: saline with Tween-80) 95 % of control.
As for `COC(=O)c1ccccc1NC(=O)c1ccco1`, the T/C is, setting by setting: under setting [18], 97 % of control; under setting [20], 96 % of control; under setting [19], 91 % of control.
For the compound `CC(=O)OC1CC2CCC1(C)C2(C)C` (stereo not given), the T/C is, setting by setting: (dose: 50.0 mg/kg/injection, schedule: Q01DX009 (ip), vehicle: saline with Tween-80) 100 % of control; under setting [13], 96 % of control; (dose: 100.0 mg/kg/injection, schedule: Q01DX009 (ip), vehicle: saline with Tween-80) 96 % of control; under setting [15], 98 % of control; under setting [10], 87 % of control; (dose: 200.0 mg/kg/injection, schedule: Q01DX009 (ip), vehicle: saline with Tween-80) 96 % of control. The T/C under setting [17] was 89 % of control and the T/C under setting [11] was 90 % of control.
Take `O=C(ONC(=O)[C@@H]1CCCC[C@H]1C(=O)NOC(=O)c1ccccc1)c1ccccc1`: the T/C by setting is: (dose: 50.0 mg/kg/injection, schedule: Q01DX001 (ip), vehicle: Klucel (hydroxypropylcellulose) (HPC)) 97 % of control; under setting [6], 92 % of control; under setting [1], 97 % of control; under setting [18], 92 % of control; under setting [2], 97 % of control; under setting [20], 103 % of control. For the same compound, the T/C by setting is: under setting [3], 96 % of control; under setting [19], 97 % of control.
